Source: US20250361230A1, “LATS Inhibitors and Uses Thereof” (The USA, as Represented by the Secretary, Dept. of Heath …, priority 2022, published 2025)
Where two headings read alike, the source gives them in different places.

Assays:
Assay type in all cases: biochemical
AKT = AKT (Homo sapiens, UniProt P31749); assay: RBC HotSpot kinase assay (33P-ATP, P81 filter-binding), AKT; details: read-out: AKT IC50
Description: (§1) Biochemical kinase inhibitory data was obtained for various exemplary compounds prepared according to the above.
(§2) The reagents used are as follows: Base Reaction buffer; 20 mM Hepes (pH 7.5), 10 mM MgCl2, 1 mM EGTA, 0.01% Brij35, 0.02 mg/ml BSA, 0.1 mM Na3VO4, 2 mM DTT, […]. Required cofactors were added individually to each kinase reaction.
(§3) The reaction procedure was as follows: • 1) Substrates were prepared in freshly prepared Reaction Buffer. • 2) Any required cofactors were delivered to the substrate solution above. • 3) Kinase was delivered into the substrate solution and gently mixed. • 4) Compounds were delivered in 100% DMSO into the kinase reaction mixture by Acoustic technology (Echo550; nanoliter range), followed by incubation for 20 min at room temp. • 5) ^33P-ATP was delivered into the reaction mixture to initiate the reaction. • 6) The mixture was incubated for 2 hours at room temperature. • 7) Kinase activity was detected by P81 filter-binding method.
(§4) Using the above functional assay, the inhibitory activity of the compounds for LATS1/2 versus AKT was characterized. The assays were typically run in a 10-point curve, in singlet, to produce a titration curve from which an IC50 value was obtained.
(§5) The reagents used are as follows: Base Reaction buffer; 20 mM Hepes (pH 7.5), 10 mM MgCl2, 1 mM EGTA, 0.01% Brij35, 0.02 mg/ml BSA, 0.1 mM Na3VO4, 2 mM DTT, 1% DMSO. Required cofactors were added individually to each kinase reaction.
(§6) Biochemical kinase inhibitory data was obtained for various exemplary compounds prepared according to the above in accordance with the protocols described in Examples 4 and 8. All biological activities are IC50, in nM.

LATS2 = biological target: T1, LATS2 (Homo sapiens, UniProt Q9NRM7); assay: RBC HotSpot kinase assay (33P-ATP, P81 filter-binding), LATS2; details: read-out: LATS2 IC50
T1 sequence (Q9NRM7 1-1088): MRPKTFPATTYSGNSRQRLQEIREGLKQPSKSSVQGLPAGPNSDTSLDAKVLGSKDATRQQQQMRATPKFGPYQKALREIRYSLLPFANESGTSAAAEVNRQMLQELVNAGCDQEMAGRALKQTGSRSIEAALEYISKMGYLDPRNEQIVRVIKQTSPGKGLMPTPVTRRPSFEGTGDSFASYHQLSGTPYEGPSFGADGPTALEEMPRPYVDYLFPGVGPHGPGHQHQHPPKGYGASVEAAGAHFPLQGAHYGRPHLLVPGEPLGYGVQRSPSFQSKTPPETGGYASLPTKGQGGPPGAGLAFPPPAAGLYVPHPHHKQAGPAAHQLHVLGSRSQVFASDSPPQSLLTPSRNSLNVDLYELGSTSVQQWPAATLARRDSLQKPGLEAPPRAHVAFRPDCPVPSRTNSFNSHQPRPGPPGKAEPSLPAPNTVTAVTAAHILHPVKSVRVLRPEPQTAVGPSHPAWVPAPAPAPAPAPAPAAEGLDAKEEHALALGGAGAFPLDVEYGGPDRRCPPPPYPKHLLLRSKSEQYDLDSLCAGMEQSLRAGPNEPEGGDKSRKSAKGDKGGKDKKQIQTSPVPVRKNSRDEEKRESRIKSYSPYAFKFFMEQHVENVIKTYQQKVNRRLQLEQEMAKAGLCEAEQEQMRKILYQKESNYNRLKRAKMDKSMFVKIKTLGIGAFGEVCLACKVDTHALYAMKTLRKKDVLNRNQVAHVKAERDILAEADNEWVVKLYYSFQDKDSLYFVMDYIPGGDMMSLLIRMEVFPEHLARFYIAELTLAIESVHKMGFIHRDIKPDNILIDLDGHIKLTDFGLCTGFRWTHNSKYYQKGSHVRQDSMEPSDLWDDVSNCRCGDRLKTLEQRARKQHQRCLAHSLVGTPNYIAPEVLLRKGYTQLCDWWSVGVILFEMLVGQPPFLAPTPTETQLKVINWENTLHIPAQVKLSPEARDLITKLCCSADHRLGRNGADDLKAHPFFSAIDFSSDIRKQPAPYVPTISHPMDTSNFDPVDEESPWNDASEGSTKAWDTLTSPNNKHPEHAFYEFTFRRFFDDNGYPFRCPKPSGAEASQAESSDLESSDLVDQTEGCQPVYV
Description: as §1, §2, §3, §4, §5, §6

LATS1 = biological target: T2, LATS1 (Homo sapiens, UniProt O95835); assay: RBC HotSpot kinase assay (33P-ATP, P81 filter-binding), LATS1; details: read-out: LATS1 IC50
T2 sequence (O95835 1-1130): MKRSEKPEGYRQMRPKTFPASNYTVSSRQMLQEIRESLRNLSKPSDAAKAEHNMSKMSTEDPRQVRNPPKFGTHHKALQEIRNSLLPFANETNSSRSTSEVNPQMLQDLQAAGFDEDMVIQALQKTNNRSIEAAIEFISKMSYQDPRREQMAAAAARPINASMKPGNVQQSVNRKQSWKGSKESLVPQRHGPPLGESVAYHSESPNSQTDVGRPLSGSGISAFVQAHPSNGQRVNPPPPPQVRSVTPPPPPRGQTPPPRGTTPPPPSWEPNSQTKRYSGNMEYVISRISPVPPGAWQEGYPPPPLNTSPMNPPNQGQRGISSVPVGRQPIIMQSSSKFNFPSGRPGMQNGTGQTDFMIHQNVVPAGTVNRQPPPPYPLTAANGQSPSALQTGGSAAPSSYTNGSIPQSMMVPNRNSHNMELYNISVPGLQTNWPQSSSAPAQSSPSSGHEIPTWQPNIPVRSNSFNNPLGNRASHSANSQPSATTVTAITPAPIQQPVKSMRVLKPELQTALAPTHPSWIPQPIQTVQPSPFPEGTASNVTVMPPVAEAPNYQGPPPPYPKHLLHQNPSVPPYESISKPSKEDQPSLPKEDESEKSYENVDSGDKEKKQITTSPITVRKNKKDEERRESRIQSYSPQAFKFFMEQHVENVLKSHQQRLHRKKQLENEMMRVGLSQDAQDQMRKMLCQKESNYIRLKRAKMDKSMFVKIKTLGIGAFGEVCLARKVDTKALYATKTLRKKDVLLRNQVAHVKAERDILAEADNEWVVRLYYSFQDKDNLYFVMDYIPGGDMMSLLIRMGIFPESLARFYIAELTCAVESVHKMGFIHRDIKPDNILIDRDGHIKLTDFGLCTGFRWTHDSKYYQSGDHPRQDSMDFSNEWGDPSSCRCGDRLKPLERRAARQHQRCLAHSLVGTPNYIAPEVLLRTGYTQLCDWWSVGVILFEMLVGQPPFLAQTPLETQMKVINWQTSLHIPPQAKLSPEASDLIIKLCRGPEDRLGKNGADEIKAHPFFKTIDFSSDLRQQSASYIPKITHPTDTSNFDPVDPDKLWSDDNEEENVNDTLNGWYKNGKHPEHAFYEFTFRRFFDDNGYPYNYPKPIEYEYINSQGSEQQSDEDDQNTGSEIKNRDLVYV
Description: as §1, §2, §3, §4, §5, §6

[1] = Table 28, biochemical kinase assay

Chain of AKT (P31749 whole entry): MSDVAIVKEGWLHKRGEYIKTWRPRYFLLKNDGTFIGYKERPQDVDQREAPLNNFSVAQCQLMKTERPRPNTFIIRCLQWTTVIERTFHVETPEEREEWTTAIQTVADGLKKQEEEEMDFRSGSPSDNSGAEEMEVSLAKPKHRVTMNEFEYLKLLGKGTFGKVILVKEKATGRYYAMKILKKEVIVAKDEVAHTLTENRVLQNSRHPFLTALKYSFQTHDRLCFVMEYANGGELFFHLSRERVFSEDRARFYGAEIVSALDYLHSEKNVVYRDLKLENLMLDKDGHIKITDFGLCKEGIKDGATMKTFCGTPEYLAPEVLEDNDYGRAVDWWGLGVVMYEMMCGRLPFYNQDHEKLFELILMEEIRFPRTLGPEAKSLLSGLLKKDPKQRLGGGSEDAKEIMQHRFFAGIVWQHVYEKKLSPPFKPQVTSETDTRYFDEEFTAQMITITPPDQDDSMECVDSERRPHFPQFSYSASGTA

| Compound | IC50 (AKT; biochemical kinase inhibition) [nM] | IC50 (LATS2; biochemical kinase inhibition) [nM] | IC50 (LATS1; biochemical kinase inhibition) [nM] | IC50 (AKT; [1]) [nM] | IC50 (LATS2; [1]) [nM] | IC50 (LATS1; [1]) [nM] |
| --- | --- | --- | --- | --- | --- | --- |
| Cc1cc(-c2ccnc3[nH]cc(C#N)c23)cc(F)c1[C@@]1(O)[C@H](C)CN(C(=O)[C@H](N)CO)C[C@@H]1C (single isomer, unassigned) [Compound 2006] | 126 | 1.4 | 3.6 | – | – | – |
| Cc1c[nH]c2nccc(-c3ccc([C@@]4(O)[C@H](C)CNC[C@@H]4C)cn3)c12 [Compound 3, (3R,4s,5S)-3,5-dimethyl-4-(6-(3-methyl-1H-pyrrolo[2,3-b]pyridin-4-yl)pyridin-3-yl)piperidin-4-ol] | – | – | – | 4410 | 49.6 | 72.3 |
| COc1cc(-c2ccnc3[nH]cc(F)c23)ncc1[C@@]1(O)[C@H](C)CNC[C@@H]1C [Compound 4, (3R,4s,5S)-4-(6-(3-fluoro-1H-pyrrolo[2,3-b]pyridin-4-yl)-4-methoxypyridin-3-yl)-3,5-dimethylpiperidin-4-ol] | – | – | – | 4160 | 56.7 | 18.2 |
| C[C@@H]1CN(C)C[C@H](C)[C@@]1(O)c1ccc(-c2ccnc3[nH]cc(F)c23)cc1Cl [Compound 5, (3S,4s,5R)-4-(2-chloro-4-(3-fluoro-1H-pyrrolo[2,3-b]pyridin-4-yl)phenyl)-1,3,5-trimethylpiperidin-4-ol] | – | – | – | 67 | 12.5 | 9.2 |
| CC(C)N1C[C@@H](C)[C@](O)(c2ccc(-c3ccnc4[nH]cc(F)c34)cc2Cl)[C@@H](C)C1 [Compound 6, (3S,4s,5R)-4-(2-chloro-4-(3-fluoro-1H-pyrrolo[2,3-b]pyridin-4-yl)phenyl)-1-isopropyl-3,5-dimethylpiperidin-4-ol] | – | – | – | 90.9 | 1.4 | 1.3 |
| Cc1nc(-c2ccnc3[nH]cc(F)c23)ccc1[C@@]1(O)[C@H](C)CNC[C@@H]1C [Compound 10, (3S,4s,5R)-4-(6-(3-fluoro-1H-pyrrolo[2,3-b]pyridin-4-yl)-2-methylpyridin-3-yl)-3,5-dimethylpiperidin-4-ol] | – | – | – | 1720 | 20.3 | 23.7 |
| C[C@@H]1CNC[C@H](C)[C@@]1(O)c1ccc(-c2ccnc3[nH]cc(F)c23)cc1C(F)(F)F [Compound 11, (3S,4s,5R)-4-(4-(3-fluoro-1H-pyrrolo[2,3-b]pyridin-4-yl)-2-(trifluoromethyl)phenyl)-3,5-dimethylpiperidin-4-ol] | – | – | – | 143 | 10.7 | 11.1 |
| Cc1cc(-c2ccnc3[nH]cc(F)c23)cc(Cl)c1[C@@]1(O)[C@H](C)CNC[C@@H]1C [Compound 12, (3S,4s,5R)-4-(2-chloro-4-(3-fluoro-1H-pyrrolo[2,3-b]pyridin-4-yl)-6-methylphenyl)-3,5-dimethylpiperidin-4-ol] | – | – | – | 10.1 | 81.2 | 201 |
| Cc1c[nH]c2nccc(-c3cc(F)c([C@@]4(O)[C@H](C)CNC[C@@H]4C)c(F)c3)c12 [Compound 15] | – | – | – | 362 | 7.2 | 8.5 |
| Cc1cc(-c2ccnc3[nH]cc(F)c23)cc(F)c1[C@@]1(O)[C@H](C)CNC[C@@H]1C [Compound 16, (3S,4s,5R)-4-(2-fluoro-4-(3-fluoro-1H-pyrrolo[2,3-b]pyridin-4-yl)-6-methylphenyl)-3,5-dimethylpiperidin-4-ol] | – | – | – | 201 | 10 | 7.1 |
| C[C@@H]1CN(Cc2ccncc2)C[C@H](C)[C@@]1(O)c1c(F)cc(-c2ccnc3[nH]cc(F)c23)cc1F [Compound 19, (3S,4s,5R)-4-(2,6-difluoro-4-(3-fluoro-1H-pyrrolo[2,3-b]pyridin-4-yl)phenyl)-3,5-dimethyl-1-(pyridin-4-ylmethyl)piperidin-4-ol] | – | – | – | 1020 | 9.2 | 11 |
| C[C@@H]1CN(C2CCC2)C[C@H](C)[C@@]1(O)c1ccc(-c2ccnc3[nH]cc(F)c23)cc1Cl [Compound 20, (3S,4s,5R)-4-(2-chloro-4-(3-fluoro-1H-pyrrolo[2,3-b]pyridin-4-yl)phenyl)-1-cyclobutyl-3,5-dimethylpiperidin-4-ol] | – | – | – | 195 | 2.7 | 2.6 |
| C[C@@H]1CN(C2COC2)C[C@H](C)[C@@]1(O)c1ccc(-c2ccnc3[nH]cc(F)c23)cc1Cl [Compound 21, (3S,4s,5R)-4-(2-chloro-4-(3-fluoro-1H-pyrrolo[2,3-b]pyridin-4-yl)phenyl)-3,5-dimethyl-1-(oxetan-3-yl)piperidin-4-ol] | – | – | – | 249 | 2.8 | 3 |
| C[C@@H]1CN(C2CCS(=O)(=O)CC2)C[C@H](C)[C@@]1(O)c1ccc(-c2ccnc3[nH]cc(F)c23)cc1Cl [Compound 26, 4-((3S,4s,5R)-4-(2-chloro-4-(3-fluoro-1H-pyrrolo[2,3-b]pyridin-4-yl)phenyl)-4-hydroxy-3,5-dimethylpiperidin-1-yl)tetrahydro-2H-thiopyran 1,1-dioxide] | – | – | – | 18.8 | 0.51 | 0.73 |
| Cc1cc(-c2ccnc3[nH]cc(F)c23)ccc1[C@@]1(O)[C@H](C)CN(C2CCOCC2)C[C@@H]1C [Compound 27, (3S,4s,5R)-4-(4-(3-fluoro-1H-pyrrolo[2,3-b]pyridin-4-yl)-2-methylphenyl)-3,5-dimethyl-1-(tetrahydro-2H-pyran-4-yl)piperidin-4-ol] | – | – | – | 47.9 | 2.2 | 1.7 |
